Results: patent publication US12558326B2, “Method for treating epilepsy” (Xenon Pharmaceuticals Inc., priority 2018, dated 2026)

System: DBA/2 mice
Experiment: Audiogenic seizure test in DBA/2 mice
Assay type: in vivo, mouse
Conditions: for Clonic Convulsion Incidence / Tonic Extension Incidence / Wild Running Incidence / Clonic Convulsion Latency / Tonic Extension Latency / Wild Running Latency / Audiogenic Response Score: 60 min prior; for Clonic Convulsion Incidence / Tonic Extension Incidence / Wild Running Incidence / Audiogenic Response Score: n=10; for Clonic Convulsion Latency / Tonic Extension Latency / Wild Running Latency / Audiogenic Response Score: mean ± SEM; for Clonic Convulsion Latency / Tonic Extension Latency / Wild Running Latency: maximum 60 s; for Audiogenic Response Score: score 0-4; for change in number of mice showing clonic convulsions / change in number of mice showing tonic convulsions / increase in latency to clonic convulsions / increase in latency to tonic convulsions / reduction of overall audiogenic response score: versus vehicle controls; for anticonvulsant activity in the audiogenic seizure test: (R/S)-fenfluramine at 15 and 30 mg/kg, (R)-fenfluramine at 30 mg/kg
Description: DBA/2 is a widely used inbred strain of mouse susceptible to audiogenic seizures due to the asp2 mutation. […] The objective of this study was to evaluate the anticonvulsant activity of (R/S)-fenfluramine and to compare it to (R)-fenfluramine in the DBA/2 mouse.
The method follows that described by Dilrmuiller et al., Neuroreport 4(6):683-686. Mice (DBA/2, 3-4 weeks old) were individually transferred (at 3-5 minute intervals) from the preparation room into an adjacent experimental room and placed in a Plexiglas™ jar (Diameter=40 cm; Height=35 cm) mounted with an electric bell (110-120 dB). Upon activating the bell, the occurrences and latencies to wild running fits, clonic and tonic seizures were measured. The number of deaths was also recorded. An audiogenic response score was assigned to each mouse as 0 (no seizure), 1 (wild running), 2 (clonic convulsion), 3 (tonic extension), or 4 (death). The bell was activated until a tonic seizure occurred or for a maximum of 60 seconds. Ten (10) mice were studied per group. The test was performed blind. All test compounds were dissolved in 0.9% saline (vehicle) and were administered by intraperitoneal (IP) injection at a dose volume of 10 mL/kg. Vehicle alone, (R/S)-fenfluramine (15 or 30 mg/kg) or (R)-fenfluramine (30 mg/kg) were administered 60 minutes prior to seizure induction. The positive reference compound (valproate; 180 mg/kg) was administered 30 minutes prior to seizure induction.

Row | SMILES | Clonic Convulsion Incidence (30 mg/kg IP) [%] | Tonic Extension Incidence (30 mg/kg IP) [%] | Wild Running Incidence (30 mg/kg IP) [%] | Clonic Convulsion Latency (30 mg/kg IP) [s] | Tonic Extension Latency (30 mg/kg IP) [s] | Wild Running Latency (30 mg/kg IP) [s] | Audiogenic Response Score (30 mg/kg IP) | change in number of mice showing clonic convulsions (30 mg/kg IP) [%] | change in number of mice showing tonic convulsions (30 mg/kg IP) [%] | increase in latency to clonic convulsions (30 mg/kg IP) | increase in latency to tonic convulsions (30 mg/kg IP) | reduction of overall audiogenic response score (30 mg/kg IP) [%] | anticonvulsant activity in the audiogenic seizure test | also measured
1 | CCNC(C)Cc1cccc(C(F)(F)F)c1 (racemic) [(rac)-fenfluramine, (R/S)—N-ethyl-1-(3-(trifluoromethyl)phenyl)propan-2-amine] | 10 | 0 | 80 | 55.3 ± 4.8 | 60.0 ± 0.0 | 16.6 ± 7.4 | 0.9 ± 0.18 | −90 | −100 | +853% | +641% | 72 | clear anticonvulsant activity | Clonic Convulsion Incidence (15 mg/kg IP): 60%; Tonic Extension Incidence (15 mg/kg IP): 0%; Wild Running Incidence (15 mg/kg IP): 100%; Clonic Convulsion Latency (15 mg/kg IP): 31.4 ± 7.8 s; Tonic Extension Latency (15 mg/kg IP): 60.0 ± 0.0 s; Wild Running Latency (15 mg/kg IP): 4.0 ± 0.7 s; Audiogenic Response Score (15 mg/kg IP): 1.6 ± 0.16; change in number of mice showing clonic convulsions (15 mg/kg IP): −40%; change in number of mice showing tonic convulsions (15 mg/kg IP): −100%; increase in latency to clonic convulsions (15 mg/kg IP): +441%; increase in latency to tonic convulsions (15 mg/kg IP): +641%; reduction of overall audiogenic response score (15 mg/kg IP): 50%
2 | CCN[C@H](C)Cc1cccc(C(F)(F)F)c1 [(R)-fenfluramine, (R)—N-ethyl-1-(3-(trifluoromethyl)phenyl)propan-2-amine] | 60 | 0 | 100 | 31.9 ± 7.7 | 60.0 ± 0.0 | 5.0 ± 1.4 | 1.6 ± 0.16 | −40 | −100 | +450% | +641% | 50 | clear anticonvulsant activity | 
